Reference: patent US20260184693A1, “INHIBITORS OF SOLUTE CARRIER FAMILY 6A MEMBER 19 (SLC6A19) AND METHODS OF USE THEREOF” (Maze Therapeutics, Inc., priority 2022, published 2026)

Each compound was assayed against T1, human SLC6A19 (Homo sapiens, UniProt Q695T7) (assay: Example B2: 13C6,15N-isoleucine uptake, RapidFire mass spectrometry, in CHO cells with doxycycline-inducible expression of human SLC6A19 and TMEM27). Settings: read-out: SLC6A19_RapidFire Uptake Assay IC50.
T1 construct: expressed in transfected cells
T1 sequence (Q695T7 1-634): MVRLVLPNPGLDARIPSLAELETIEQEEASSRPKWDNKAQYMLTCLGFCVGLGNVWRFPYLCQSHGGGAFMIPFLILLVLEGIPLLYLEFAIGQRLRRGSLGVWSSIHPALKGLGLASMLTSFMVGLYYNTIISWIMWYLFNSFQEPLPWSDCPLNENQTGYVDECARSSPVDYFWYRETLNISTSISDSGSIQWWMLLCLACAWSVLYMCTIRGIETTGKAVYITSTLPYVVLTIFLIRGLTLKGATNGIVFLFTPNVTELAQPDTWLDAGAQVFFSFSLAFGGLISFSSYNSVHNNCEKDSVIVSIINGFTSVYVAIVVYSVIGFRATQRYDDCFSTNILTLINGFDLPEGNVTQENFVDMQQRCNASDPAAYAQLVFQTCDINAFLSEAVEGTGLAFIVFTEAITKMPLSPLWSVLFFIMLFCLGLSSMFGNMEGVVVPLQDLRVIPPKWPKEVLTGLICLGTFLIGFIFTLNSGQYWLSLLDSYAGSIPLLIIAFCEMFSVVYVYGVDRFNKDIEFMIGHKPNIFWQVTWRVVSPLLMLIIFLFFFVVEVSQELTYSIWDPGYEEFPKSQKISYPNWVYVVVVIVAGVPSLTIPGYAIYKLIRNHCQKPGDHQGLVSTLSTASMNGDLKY
T1 sequence (Q9HBJ8 15-222 partner): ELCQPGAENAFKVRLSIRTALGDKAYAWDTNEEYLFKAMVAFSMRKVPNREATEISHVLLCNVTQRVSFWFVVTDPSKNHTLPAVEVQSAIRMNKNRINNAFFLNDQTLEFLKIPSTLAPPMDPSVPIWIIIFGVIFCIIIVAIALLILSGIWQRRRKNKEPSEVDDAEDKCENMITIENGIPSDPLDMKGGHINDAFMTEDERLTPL
Assay type: cell-based
Outline: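 CHO cells were induced with doxycycline to express human SLC6A19 with TMEM27, then pre-incubated 20 min at 37 °C with compounds (2-fold, 10-point, duplicate). Uptake of 13C6,15N-isoleucine (2 mM solution added) over a further 20 min was measured by RapidFire mass spectrometry, using 13C-leucine as internal standard.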

| SMILES | IC50 |
| --- | --- |
| CC(=O)N1CCC[C@@H](N(C)C(=O)NCc2cc3ccc(OCc4cncs4)cc3[nH]2)C1 [Compound 136, (R)-1-(1-acetylpiperidin-3-yl)-1-methyl-3-((6-(thiazol-5-ylmethoxy)-1H-indol-2-yl)methyl)urea] | 3.95 µM |
| CC(=O)N1CCC[C@@H](N(C)C(=O)NCc2cc3cc(Cl)c(OCc4ccon4)cc3[nH]2)C1 [Compound 138, (R)-1-(1-acetylpiperidin-3-yl)-3-((5-chloro-6-(isoxazol-3-ylmethoxy)-1H-indol-2-yl)methyl)-1-methylurea] | 0.643 µM |
| CCN(C(=O)NCc1cc2ccc(OCc3ccon3)cc2[nH]1)[C@@H]1CCCN(C(C)=O)C1 [Compound 139, (R)-1-(1-acetylpiperidin-3-yl)-1-ethyl-3-((6-(isoxazol-3-ylmethoxy)-1H-indol-2-yl)methyl)urea] | 0.517 µM |
| CC(=O)N1CCC[C@@H](N(C)C(=O)NCc2cc3cc(Cl)c(OCc4cncs4)cc3[nH]2)C1 [Compound 140, (R)-1-(1-acetylpiperidin-3-yl)-3-((5-chloro-6-(thiazol-5-ylmethoxy)-1H-indol-2-yl)methyl)-1-methylurea] | 1.24 µM |
| CC(=O)N1CCC[C@@H](N(C)C(=O)NCc2cc3ccc(OCc4ccon4)cc3[nH]2)C1 [Compound 141, (R)-1-(1-acetylpiperidin-3-yl)-3-((6-(isoxazol-3-ylmethoxy)-1H-indol-2-yl)methyl)-1-methylurea] | 0.67 µM |
| Cc1cc(COc2ccc3cc(CNC(=O)N(C)[C@@H]4CCCN(c5cccnn5)C4)[nH]c3c2)no1 [Compound 142, (R)-1-methyl-3-((6-((5-methylisoxazol-3-yl)methoxy)-1H-indol-2-yl)methyl)-1-(1-(pyridazin-3-yl)piperidin-3-yl)urea] | 1.31 µM |
| CC(=O)N1CCC[C@@H](N(C)C(=O)NCc2cc3ccc(OCc4cc(C)on4)cc3[nH]2)C1 [Compound 143, (R)-1-(1-acetylpiperidin-3-yl)-1-methyl-3-((6-((5-methylisoxazol-3-yl)methoxy)-1H-indol-2-yl)methyl)urea] | 1.09 µM |
| Cc1cc(COc2cc3[nH]c(CNC(=O)N(C)[C@@H]4CCCN(c5cccnn5)C4)cc3cc2Cl)no1 [Compound 144, (R)-3-((5-chloro-6-((5-methylisoxazol-3-yl)methoxy)-1H-indol-2-yl)methyl)-1-methyl-1-(1-(pyridazin-3-yl)piperidin-3-yl)urea] | 0.284 µM |
| CN(C(=O)NCc1cc2ccccc2[nH]1)C1CCCN(c2cccnn2)C1 (stereo not drawn) [Compound 145, 3-((1H-indol-2-yl)methyl)-1-methyl-1-(1-(pyridazin-3-yl)piperidin-3-yl)urea] | 0.909 µM |
| CN(C(=O)NCc1cc2ccccc2[nH]1)[C@@H]1CCCN(c2cccnn2)C1 [Compound 146, (R)-3-((1H-indol-2-yl)methyl)-1-methyl-1-(1-(pyridazin-3-yl)piperidin-3-yl)urea] | 0.553 µM |
| CC(=O)N1CCC[C@@H](N(C)C(=O)NCc2cc3ccccc3[nH]2)C1 [Compound 148, (R)-3-((1H-indol-2-yl)methyl)-1-(1-acetylpiperidin-3-yl)-1-methylurea] | 1.08 µM |
| CN1CCC[C@@H](N(C)C(=O)NCc2cc3cc(Cl)ccc3[nH]2)C1 [Compound 149, (R)-3-((5-chloro-1H-indol-2-yl)methyl)-1-methyl-1-(1-methylpiperidin-3-yl)urea] | 10.1 µM |
| COc1cc2[nH]c(CNC(=O)N(C)[C@@H]3CCCN(C(C)=O)C3)cc2cc1Cl [Compound 153, (R)-1-(1-acetylpiperidin-3-yl)-3-((5-chloro-6-methoxy-1H-indol-2-yl)methyl)-1-methylurea] | 0.504 µM |
| CCOc1cc2[nH]c(CNC(=O)N(C)[C@@H]3CCCN(C(C)=O)C3)cc2cc1Cl [Compound 155, (R)-1-(1-acetylpiperidin-3-yl)-3-((5-chloro-6-ethoxy-1H-indol-2-yl)methyl)-1-methylurea] | 0.537 µM |
| CC(=O)N1CCC[C@@H](N(C)C(=O)NCc2cc3ccc(F)cc3[nH]2)C1 [Compound 160, (R)-1-(1-acetylpiperidin-3-yl)-3-((6-fluoro-1H-indol-2-yl)methyl)-1-methylurea] | 0.708 µM |
| CC(=O)N1CCC[C@@H](N(C)C(=O)NCc2cc3cc(F)ccc3[nH]2)C1 [Compound 161, (R)-1-(1-acetylpiperidin-3-yl)-3-((5-fluoro-1H-indol-2-yl)methyl)-1-methylurea] | 0.493 µM |
| COc1ccc2cc(CNC(=O)N(C)[C@@H]3CCCN(C(C)=O)C3)[nH]c2c1 [Compound 162, (R)-1-(1-acetylpiperidin-3-yl)-3-((6-methoxy-1H-indol-2-yl)methyl)-1-methylurea] | 6.78 µM |
| CC(=O)N1CCC[C@@H](N(C)C(=O)NCc2cc3cc(F)c(Cl)cc3[nH]2)C1 [Compound 164, (R)-1-(1-acetylpiperidin-3-yl)-3-((6-chloro-5-fluoro-1H-indol-2-yl)methyl)-1-methylurea] | 0.351 µM |
| CC(=O)N1CCC[C@@H](N(C)C(=O)NCc2cc3[nH]ccc3cc2Cl)C1 [Compound 165, (R)-1-(1-acetylpiperidin-3-yl)-3-((5-chloro-1H-indol-6-yl)methyl)-1-methylurea] | 8.03 µM |
| CC(=O)N1CCC[C@@H](N(C)C(=O)NCc2cc3[nH]cc(C)c3cc2F)C1 [Compound 168, (R)-1-(1-acetylpiperidin-3-yl)-3-((5-fluoro-3-methyl-1H-indol-6-yl)methyl)-1-methylurea] | 0.651 µM |
| CC(=O)N1CCC[C@@H](N(C)C(=O)NCc2cc3ccc(C#N)cc3[nH]2)C1 [Compound 172, (R)-1-(1-acetylpiperidin-3-yl)-3-((6-cyano-1H-indol-2-yl)methyl)-1-methylurea] | 10.9 µM |

Further compounds by falling IC50, results first:

| IC50 | SMILES |
| --- | --- |
| 0.282 µM | CC(=O)N1CCC[C@@H](N(C)C(=O)NCc2cc3cc(F)c(F)cc3[nH]2)C1 [Compound 156, (R)-1-(1-acetylpiperidin-3-yl)-3-((5,6-difluoro-1H-indol-2-yl)methyl)-1-methylurea] |
| 0.194 µM | CC(=O)N1CCC[C@@H](N(C)C(=O)NCc2cc3cc(C)c(Cl)cc3[nH]2)C1 [Compound 157, (R)-1-(1-acetylpiperidin-3-yl)-3-((6-chloro-5-methyl-1H-indol-2-yl)methyl)-1-methylurea] |
| 0.179 µM | CC(=O)N1CCC[C@@H](N(C)C(=O)NCc2cc3cc(Cl)c(F)cc3[nH]2)C1 [Compound 159, (R)-1-(1-acetylpiperidin-3-yl)-3-((5-chloro-6-fluoro-1H-indol-2-yl)methyl)-1-methylurea] |
| 0.173 µM | CC(=O)N1CCC[C@@H](N(C)C(=O)NCc2cc3cc(Cl)c(Cl)cc3[nH]2)C1 [Compound 154, (R)-1-(1-acetylpiperidin-3-yl)-3-((5,6-dichloro-1H-indol-2-yl)methyl)-1-methylurea] |
| 0.171 µM | CCc1cc2[nH]c(CNC(=O)N(C)[C@@H]3CCCN(C(C)=O)C3)cc2cc1Cl [Compound 152, (R)-1-(1-acetylpiperidin-3-yl)-3-((5-chloro-6-ethyl-1H-indol-2-yl)methyl)-1-methylurea] |
| 0.168 µM | CCN(C(=O)NCc1cc2cc(F)ccc2[nH]1)[C@@H]1CCCN(C(C)=O)C1 [Compound 166, (R)-1-(1-acetylpiperidin-3-yl)-1-ethyl-3-((5-fluoro-1H-indol-2-yl)methyl)urea] |
| 0.113 µM | COC(=O)N1CCC[C@@H](N(C)C(=O)NCc2cc3cc(Cl)ccc3[nH]2)C1 [Compound 158, methyl (R)-3-(3-((5-chloro-1H-indol-2-yl)methyl)-1-methylureido)piperidine-1-carboxylate] |
| 0.103 µM | CCN(C(=O)NCc1cc2cc(Cl)c(OC)cc2[nH]1)[C@@H]1CCCN(C(C)=O)C1 [Compound 167, (R)-1-(1-acetylpiperidin-3-yl)-3-((5-chloro-6-methoxy-1H-indol-2-yl)methyl)-1-ethylurea] |
| 0.0978 µM | CCN(C(=O)NCc1cc2cc(F)c(F)cc2[nH]1)[C@@H]1CCCN(C(C)=O)C1 [Compound 169, (R)-1-(1-acetylpiperidin-3-yl)-3-((5,6-difluoro-1H-indol-2-yl)methyl)-1-ethylurea] |
| 0.0919 µM | CN(C(=O)NCc1cc2ccccc2[nH]1)[C@@H]1CCCN(c2ccon2)C1 [Compound 150, (R)-3-((1H-indol-2-yl)methyl)-1-(1-(isoxazol-3-yl)piperidin-3-yl)-1-methylurea] |
| 0.0451 µM | CCN(C(=O)NCc1cc2cc(Cl)c(F)cc2[nH]1)[C@@H]1CCCN(C(C)=O)C1 [Compound 170, (R)-1-(1-acetylpiperidin-3-yl)-3-((5-chloro-6-fluoro-1H-indol-2-yl)methyl)-1-ethylurea] |
| 0.0404 µM | CN(C(=O)NCc1cc2cc(Cl)ccc2[nH]1)[C@@H]1CCCN(c2ccon2)C1 [Compound 151, (R)-3-((5-chloro-1H-indol-2-yl)methyl)-1-(1-(isoxazol-3-yl)piperidin-3-yl)-1-methylurea] |
